# Experimental data taken from ChEMBL document CHEMBL3507680, “University of Dundee, Gates Library screen for HepG2 cell viability”.
# Assay: Human HepG2 cell viability assay in 384 well format
# Format: toxicity, cell-based
# Parameters: dose 125 nL, time 70.5 hour; concentration not given beside the values
# Details: HepG2 cells, read-out: Inhibition
row,SMILES,cytotoxicity at 70.5 h [%]
1,O=C(NCc1nc[nH]n1)c1cc(COc2cccc(C(F)(F)F)c2)[nH]n1,21.3
2,Cc1c(S(=O)(=O)NCC(C)C)cnn1C,-14.3
3,CN(CCCc1cnn(C)c1)C(=O)C1CCCN(C2CCCC2)C1 (centres undefined),7.47
4,Cc1cc(C)n(C2CN(CC(=O)N(C)Cc3ccc(C)o3)C2)n1,-9.43
5,CC(NC(=O)NCC(C)(C)C(N)=O)c1nc(-c2ccccc2)cs1 (centres undefined),-5.18
6,Cc1noc(C)c1CN1CCc2ncnc(-c3ccccc3)c2CC1,18.5
7,Cc1cc(C)n(CC2CCCN2C(=O)c2ccc3[nH]nnc3c2)n1 (centres undefined),0.633
8,COCC(=O)N1CCC(Nc2ccnc3ccc(Cl)cc23)CC1,4.85
9,CC(C)(C)OC(=O)N1CCCN(c2nnc(Br)s2)CC1,-4.55
10,c1ccc(OCCN2CCc3c(ncn3C3CC3)C2)cc1,-4.85
11,Cc1cccnc1CCNC(=O)[C@@]12CNC[C@@H]1CN(S(C)(=O)=O)C2,-1.74
12,O=C1CCCN1CCCC(=O)N1CCC2(CC1)[C@H](O)C[C@@H]2O,-0.254
13,CCS(=O)(=O)N1CCC(c2nn(CCN(C)C)c3ncccc23)C1 (centres undefined),-1.3
14,O[C@@H]1C[C@@H](c2nc(-c3cccnc3)no2)N(C2CCOCC2)C1,16.4
15,Cc1nc(C2CCCN2C(=O)Cn2cncn2)no1 (centres undefined),-9.87
16,COc1ccccc1C1SCC(=O)Nc2c1c(=O)[nH]n2C1CCCCC1 (centres undefined),20.9
17,O=C(c1ccccn1)N1CC(S(=O)(=O)c2ccc(Cl)cc2)C1,1.72
18,COc1ccnc(N2CCN(CC(=O)N3CCOC(C)C3)CC2)n1 (centres undefined),-8.38
19,CC(C)Cc1cc(NC(=O)c2ccc3[nH]nnc3c2)n(C)n1,14.7
20,CC(C)(C(=O)NCCCc1nc2ccccc2[nH]1)n1cc(Cl)cn1,-5.61
21,Cn1cc(CN2CCN(CC3(c4ccccc4)CC3)CC2)cn1,-11.2
22,CC(C)(C)CC(NC(=O)N1CCC(C(N)=O)CC1)C(F)(F)F (centres undefined),5.66
23,CN1C2(CCN(Cc3ccc(F)cc3)C2)c2ccccc2S1(=O)=O (centres undefined),13.5

row,SMILES,cytotoxicity at 70.5 h [%]
1,COCc1nc(CN(CC(N)=O)C(C)C)cs1,-3.43
2,O=C(NCCNc1ncccn1)N1CCSCC1,-11.7
3,CNC(=O)CN1CCN(C(=O)Nc2ccc(C)s2)CC1,-1.2
4,CN(C)C(=O)C1CSCN1C(=O)CCc1ccco1 (centres undefined),-8.81
5,Fc1ccc(F)c(CN2CCC(c3cnccn3)CC2)c1,-5.3
6,CCCOc1ccc(C(=O)N[C@@H]2CCNC[C@H]2O)cc1Cl,2.76
7,O=C(CCNc1ncccn1)NCc1cccc(OC(F)F)c1,-11.7
8,CN(C)C(=O)Cc1nc(CN2CCCCC2Cn2cccn2)cs1 (centres undefined),37
9,CN(Cc1ccncc1)c1cncc(Br)c1,-14.6
10,CNc1cc(C)nc(C2CN(Cc3ccc(C)nc3)CCO2)c1 (centres undefined),-9.06
11,CC(C(=O)Nc1ccc(N2CCCCC2)nc1)n1cncn1 (centres undefined),26.7
12,Cc1cc(C(=O)Nc2ccn(CCCN3CCCC3)n2)c(C)o1,-0.537
13,CCn1c(C2CCN(C(=O)c3cc(Cl)no3)CC2)nn(C)c1=O,39
14,Cc1cc(O)n(-c2ccccc2Cl)c(=O)c1C#N,-0.226
15,COc1ccc(Cl)cc1C(=O)N1CCOC2(CNCCOC2)C1 (centres undefined),-0.31
16,O=S(=O)(CCN1CCCCC1Cn1cccn1)c1ccccc1 (centres undefined),-28.3
17,Cc1c(C(=O)NCC2CCN(Cc3c[nH]cn3)C2)[nH]c2ccccc12 (centres undefined),8.7
18,O=C(Cc1n[nH]c2ccccc12)N1CCC(Nc2cccnn2)CC1,-2.23
19,CC(C)c1nccn1-c1cncc(C2CCCN(C3CCCCC3)C2)n1 (centres undefined),-0.366
20,CN(Cc1ccc(Cl)s1)C(=O)COc1cccc(C(N)=O)c1,-26.8
21,CNC(=O)[C@H]1C[C@@H]2CN(C(=O)c3ccc(C)nc3)C[C@@H]2N1C(C)C,-9.38
22,O=C(NCCNc1ccccn1)N1CCSCC1,-5.96
23,COc1ccccc1OCCN1CCCC(c2noc(C3CC3)n2)C1 (centres undefined),-0.413

row,SMILES,cytotoxicity at 70.5 h [%]
1,O=C(c1ccccn1)N1Cc2ccccc2OC2(CCOCC2)C1,-0.0226
2,CCn1cc(CN2CCCN(C(=O)c3cccn3C)CC2)cn1,-7.92
3,O=C1N(Cc2ccc(F)c(F)c2)CCCC12CCN(C1CCCC1)C2 (centres undefined),-2.62
4,O=C([C@H]1CCCO1)N1CCCC2(CCN(Cc3ccncc3)C2=O)C1 (some centres undefined),22.1
5,Cc1ccc(F)c(-n2nnc(C(=O)O)c2-c2ccncc2)c1,-5.82
6,CNC(=O)CN(C)c1cncc(OCc2ccccc2)n1,8.53
7,O=C(c1ccnnc1)N1C[C@H](OCc2ccccn2)[C@H]2COC[C@H]21,4.62
8,CCc1nc2c(c(N3CCOCC3)n1)CCN(C(=O)c1ccon1)CC2,6.74
9,O=C(O)CNC(=O)Cc1csc(-c2cccc(Cl)c2)n1,21.1
10,Cc1ccc(N2CCCC(NC(=O)CCc3ccccn3)C2=O)cc1 (centres undefined),0.525
11,Cc1nc(C)n(CC2CCCN(Cc3cccnc3)C2)n1 (centres undefined),-0.814
12,CSc1cc2c(cc1NC(=O)NCC(=O)N(C)C)OCCO2,0.952
13,C[C@H]1CN(C(=O)c2cccnc2)C[C@@]12CCN(CCN1CCCC1)C2=O,-6.14
14,c1ccc(-c2noc(CN3CCOC(Cn4cccn4)C3)n2)nc1 (centres undefined),-8.08
15,CCN(CCNCc1cccc(C#N)c1)C1CC1,10.9
16,c1csc(-c2noc(COCC3CCCO3)n2)c1 (centres undefined),1.87
17,O=S(=O)(C1CC1)N1C[C@H]2CCC[C@@]2(COc2ccccn2)C1,-19.4
18,N#Cc1cc(F)ccc1Cn1cncn1,-9.13
19,COCC1CCCN(CCCc2cccc(OC)c2)C1 (centres undefined),37.4
20,c1ncn(CC2CCCN(Cc3cn4ccsc4n3)C2)n1 (centres undefined),-5.75
21,CCN(CCO)C[C@@H]1CN(c2nc(C)cc(C)n2)C[C@@H]1CO,-2.32
22,CN(C)C(=O)c1ccc(C2CCCN2C(=O)CCC2=NNC(=O)CC2)s1 (centres undefined),-14.5
23,CNc1cc(N2CCCC2CNCc2csc(C(C)C)n2)ncn1 (centres undefined),28.6

row,SMILES,cytotoxicity at 70.5 h [%]
1,O=C(c1ccc2nccnc2c1)N1C[C@@H](CN2CCCC2)[C@@H](CO)C1,-5.28
2,COCC(=O)N1CCCC1c1cccc(C)c1C (centres undefined),4.58
3,Cc1cc(C(F)(F)F)nc(CCNC(C)Cn2nc(C)cc2C)n1 (centres undefined),-16.8
4,Cc1nn(C)cc1S(=O)(=O)NC1(CN2CCOCC2)CCCCC1,-3.14
5,c1c2c(nn1CC1CC1)C(CNC1CCOCC1)OCC2 (centres undefined),-11.6
6,Cc1cc(CN(C)C(=O)c2ccc(F)cc2Br)no1,-9.11
7,Cn1c(C2CC2)nc2c1CCN(CC(=O)Nc1ccncc1)C2,4.27
8,COc1ccccc1[C@@H]1CN(C(=O)c2csc(C)n2)C[C@H]1C(=O)O,-2.79
9,O=S(=O)(Nc1cnc(N2CCCC2)nc1)c1ccc(F)cc1F,-6.31
10,COc1ccc(CC(=O)N2CCCC(n3cc(C)cn3)C2)cc1F (centres undefined),-2.2
11,c1ccc(Oc2cccc(OC34CCCN(CC3)C4)c2)cc1 (centres undefined),-12
12,Cc1cc(=O)n(C)cc1NC(=O)CC1CCC1,-2.84
13,CNC(=O)[C@H]1C[C@@H]2CN(S(=O)(=O)c3ccc(C)cc3)C[C@@H]2N1C,-1.06
14,Cn1nc(CN2CCCCC2)c2c1CN(C(=O)c1cccc(C#N)c1)C2,15.7
15,CCc1cc(N(C)CCc2noc(C)n2)nc(N2CCOCC2)n1,-7.76
16,CCc1noc(C(C)N(C)CC(=O)Nc2ccc(Cl)c(C(F)(F)F)c2)n1 (centres undefined),-97
17,Cn1cc(-c2nnn3c2COC(CNCc2nccs2)C3)cn1 (centres undefined),-25.2
18,Cc1cc(NCCNc2cccnc2)nc(-c2ccccc2O)n1,3.73
19,Cc1ccc(N2CCCN(C(=O)CCC3CCCO3)CC2)nn1 (centres undefined),4.12
20,N#Cc1c(F)cccc1N1CCC(NS(=O)(=O)c2cccs2)CC1,13.5
21,Cc1ccnc(C2(C)CCCN2S(=O)(=O)c2ccccc2)n1 (centres undefined),16.3
22,Cc1ccc(CNC(=O)CN(CCC(N)=O)c2ccc(F)cc2)cc1,-3.51
23,CCn1cc(NC(=O)NCC(C)N(C)C2CC2)cn1 (centres undefined),-4.71

row,SMILES,cytotoxicity at 70.5 h [%]
1,CCc1cc(NC2CCN(CC(N)=O)CC2)nc(N2CCCCC2)n1,-2.44
2,CC(C)(O)c1cc(CC2(NCc3ccccc3Cl)COC2)no1,-0.604
3,CCOc1cc([C@@H]2N[C@H](c3nccs3)Cc3ccsc32)ccc1OC,-3
4,O=C1O[C@@H]2CN(Cc3ccncc3)C[C@@H]2N1CCCN1CCOCC1,-3.93
5,CN1CCN(C2CCN(Cc3nnc(C(C)(C)C)o3)CC2)C1=O,-1.9
6,NC[C@H]1CC[C@H](C(NC(=O)c2cccc(F)c2)c2ccccn2)CC1 (some centres undefined),41
7,Cc1cc2nc(C(C)C)cc(NCCNc3ncccc3C)n2n1,12.1
8,CC[C@H](C)[C@H](N)C(=O)Nc1nc(-c2cnc(N(C)CCO)nc2)cs1,-1.04
9,CC[C@@H]1N(Cc2ccc(F)cc2)CCC[C@]12CCC(=O)N2CCOC,10.3
10,CC(=O)N1CCO[C@@H]2CN(S(=O)(=O)c3ccc(C)cc3)CC[C@@H]2C1,11.2
11,COCCc1noc(CN2CCOC(Cn3nc(C)cc3C)C2)n1 (centres undefined),2.63
12,Cc1cc(C)cc(C(=O)N2CCCN(CC(N)=O)CC2)c1,37.8
13,CC(NC(=O)NCC(C)(C)O)c1ccc(-c2cncnc2)cc1 (centres undefined),19.1
14,CC(Sc1nnnn1C1CCOCC1)C(=O)NC1CCCCC1 (centres undefined),-3.49
15,COc1cc2nc(C)sc2cc1NC(=O)C(C)NC(N)=O (centres undefined),1.54
16,CCN(CC1CCOC1)C(=O)c1ccc(-c2ccsc2)nc1C (centres undefined),-7.65
17,Cc1cccc(CN2Cc3[nH]nc(COCCO)c3C2)n1,-0.969
18,Cc1cccc(CN2CCn3cc(CNC(=O)CC4CC4)nc3C2)n1,-5.24
19,O=C(CC1OCCc2ccsc21)NCC1CC1 (centres undefined),-1.8
20,CCn1cnnc1C1CCN(C(=O)COc2ccccc2OC)CC1,6.54
21,CN(CCCc1cnn(C)c1)C(=O)C1COc2ccccc2C1 (centres undefined),-5.74
22,Cc1nccn1CC1CCCN(Cc2ccc(-c3cccnc3)cc2)C1 (centres undefined),-9.2
